In patent US11059795B2, “Androgen receptor modulators and methods for their use” (ESSA Pharma, Inc., priority 2018, dated 2021):

Columns and labels:
[1] = In vivo pharmacokinetics in plasma after oral gavage (PO) in male CD-1 mice; conditions: for bioavailability / AUC(0-t) / Cmax / Tmax / half-life: mouse; for half-life: read-out: t½ (converted); for Cmin at 5 mg/kg PO: Table 4
Protocol: The purpose of this study is to determine the pharmacokinetics of the tested compounds in plasma, following oral gavage administration (PO) to male CD-1 mice.
Animal Husbandry: Animals were group housed during acclimation and the study. The animal room environment were controlled (target conditions: temperature 18 to 26° C., relative humidity 30 to 70%, 12 hours artificial light and 12 hours dark). Temperature and relative humidity were monitored daily. Animals were fasted at least 12 hours prior to the administration. All animals had access to Certified Rodent Diet ad libitum 4 hours post dosing.
Dose Formulation: prepared 85-100 uL of a stock solution of representative compounds of the disclosure in DMSO at 50 mM; 1.5% v/v of Tween 80 were added and mixed gently; 95.5% v/v saline was added gently to the organic phase. The solution was mixed slowly by reverse pipetting to get a clear solution.
Dose Administration: the dose formulations were administered via oral gavage per facility SOPs. The dose volume were determined by the animals' body weight collected on the morning of dosing day
Sample Collection: blood collection (about 0.05 mL per time point) was performed from saphenous vein of each animal into polypropylene tubes at each timepoints (0, 0.25, 0.5, 1, 2, 4, 8, 12, and 24 hr). All blood samples were transferred into pre-chilled tubes containing 2 μL of K2-EDTA (0.5M) and placed on wet ice until centrifugation. Each collected blood sample was in the wet-ice before centrifugation. Each collected blood was under centrifugation for 15 minutes at 4° C. and 3000 g for plasma collection. Plasma samples were stored in polypropylene tubes, quickly frozen over dry ice and kept at −70±10° C. until LC/MS/MS analysis.
Bioanalytical analysis: A LC-MS/MS method for the quantitative determination of tested compound in biological matrix were developed under non-GLP compliance. A calibration curve with at least 7 non-zero calibration standards were applied for the method including LLOQ.
Plasma concentration versus time data were analyzed by non-compartmental approaches using the Phoenix WinNonlin 6.3 software program. Cl, Vdss, C0, Cmax, Tmax, T^1/2, AUC(0-t), AUC(0-inf), MRT(0-t), MRT(0-inf), % F (oral availability) and graphs of plasma concentration versus time profile were reported.

[2] = target: T1, LBD of androgen receptor (AR) fused to DBD of GAL4 (Homo sapiens, UniProt P10275); experiment: LBD-expressing reporter assay (GeneBLAzer), AR LBD; assay type: cell-based; conditions: inhibition of maximal activity attained with agonist; read-out: Steroid Receptor LBD IC50 (μM) AR
T1 sequence (P10275 669-900 limits assumed): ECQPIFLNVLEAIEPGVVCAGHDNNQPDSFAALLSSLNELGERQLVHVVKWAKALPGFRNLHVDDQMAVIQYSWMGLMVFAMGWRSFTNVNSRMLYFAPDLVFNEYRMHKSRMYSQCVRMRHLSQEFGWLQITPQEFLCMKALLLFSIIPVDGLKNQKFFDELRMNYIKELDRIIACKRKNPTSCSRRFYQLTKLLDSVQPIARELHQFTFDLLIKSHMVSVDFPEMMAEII
Text: (§1) This assay uses cells that stably express a chimera fusion protein comprising the LBD of a steroid hormone receptor fused to the DNA-binding domain (DBD) of GAL4 along with beta-lactamase reporter under transcriptional control of an upstream activator sequence (UAS). When agonist binds to the LBD of the GAL4 (DBD)-steroid hormone (LBD) chimera fusion protein, the protein binds to the UAS, resulting in expression of beta-lactamase. LBDs of androgen receptor (AR), progesterone receptor-beta (PRβ), glucocorticoid receptor (GR), estrogen receptor-α (ERα), and estrogen receptor-β (ERβ) were tested and IC50s calculated for inhibiting maximal activity attained with agonist.

[3] = target: T2, LBD of glucocorticoid receptor (GR) fused to DBD of GAL4 (Homo sapiens, UniProt P04150); experiment: LBD-expressing reporter assay (GeneBLAzer), GR LBD; assay type: cell-based; conditions: inhibition of maximal activity attained with agonist; read-out: Steroid Receptor LBD IC50 (μM) GR
T2 sequence (P04150 524-758 limits assumed): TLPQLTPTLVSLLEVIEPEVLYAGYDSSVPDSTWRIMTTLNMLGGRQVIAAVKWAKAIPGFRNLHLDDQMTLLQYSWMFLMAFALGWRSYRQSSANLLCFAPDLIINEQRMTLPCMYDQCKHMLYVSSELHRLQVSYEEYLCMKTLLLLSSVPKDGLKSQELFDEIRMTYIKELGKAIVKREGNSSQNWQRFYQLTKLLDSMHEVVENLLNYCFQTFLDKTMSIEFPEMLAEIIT
Text: as §1

[4] = Hepatocyte stability assay, human hepatocytes; assay type: in vitro ADME; conditions: cryopreserved hepatocytes, read-out: Hepatocytes T½ (min) Human
Text: The […] of in vitro intrinsic clearance (Clint) for drug candidates in the early discovery stage is common practice in the pharmaceutical industry. The Clint values of drug candidates can help to confirm whether metabolism is the main clearance pathway when it is compared with the total body clearance in vivo. Hepatocytes are among the routinely used in vitro systems for measuring clearance. Hepatocytes have been reported to retain most of the phase I and phase II metabolic activities, and therefore, it is a useful tool to estimate the intrinsic clearance for potential drug candidates.
Metabolic stability of testing compound were be evaluated using human and mouse hepatocytes and can also be use rat, mouse, or other animal hepatocytes to predict intrinsic clearance. Cryopreserved hepatocytes were removed from the liquid nitrogen tank and thawed in a 37° C. water bath. As soon as the cells pulled away from the vial wall, they were decanted into 48 ml of warm HT medium. Cells were centrifuged for four minutes at 420 rpm (50 g). After removing the supernatant, pellet was re-suspended in warm DMEM medium. Cell density was counted by a hemacytometer.
The assay was carried out in 96-well microtiter plates. Compounds were incubated for 0, 60, 120, and 180 minutes at 37° C. with hepatocytes. Reaction mixtures (50 μL) contained a final concentration of 1 μM test compound, 0.5 million cells/mL hepatocytes in the DMEM medium. At each of the time points (for example, 0, 1, 2, and 3 hours), 200 μL of quench solution (100% acetonitrile with 0.1% formic acid) with internal standard was transferred to each well. Midazolam was included as a positive control to verify assay performance. Plates were sealed and centrifuged at 4° C. for 15 minutes at 4000 rpm. The supernatant is transferred to fresh plates for LC/MS/MS analysis.
Summarized conditions (customizable): [Compound]=[…], Positive control: midazolam and/or naloxone, [Hepatocyte]=0.5 million cells/Ml, time=0, 60, 120, and 180 min, t=37° C.
All samples were analyzed on LC/MS/MS using an AB Sciex API 4000 instrument, coupled to a Shimadzu LC-20AD LC Pump system. Analytical samples were separated using a Waters Atlantis T3 dC18 reverse phase HPLC column (20 mm×2.1 mm) at a flow rate of 0.5 mL/min. The mobile phase consisted of 0.1% formic acid in water (solvent A) and 0.1% formic acid in 100% acetonitrile (solvent B).
The extent of metabolism was calculated as the disappearance of the test compound, compared to the 0-min control reaction incubations. Initial rates were calculated for the compound concentration and used to determine t½ values and subsequently, the intrinsic clearance, Clint. Clint=(0.693)(1/t½(min))(mL incubation/million cells)

[5] = plasma, single PO dose 5 mg/kg, male CD-1 mice, oral availability
[6] = single PO dose 5 mg/kg, male CD-1 mice, plasma

Row | Structure (SMILES) | bioavailability [1, 5] [%] | AUC(0-t) [1, 6] [ng·h/mL] | Cmax [1, 6] [ng/mL] | Tmax [1, 6] [h] | half-life [1, 6] [h] | AUC/D [1, 6] [kg·ng·h/mL/mg] | IC50 [2] [µM] | IC50 [3] [µM] | half-life at 1 μM [4] [min] | Cmin at 5 mg/kg PO [1] [nM] | t½ [1, 6] [h] | F (%) ([1]; single PO dose 5 mg/kg, male CD-1 mice, oral availability)
1 | CC(C)(c1ccc(OCc2coc(NS(C)(=O)=O)n2)cc1)c1cc(Cl)c(OCCCl)c(Cl)c1 [Compound A38, N-(4-((4-(2-(3,5-dichloro-4-(2-chloroethoxy)phenyl)propan-2-yl)phenoxy)methyl)oxazol-2-yl)methanesulfonamide] | 86.4 | 12800 | 1270 | 3.3 | 4.9 | 2561.0 | > 10 | > 10 | > 360 |  |  | 
2 | Cc1cnc(NS(C)(=O)=O)nc1COc1ccc(C(C)(C)c2cc(Cl)c(OCCCl)c(C#N)c2)cc1 [Compound A122, N-(4-((4-(2-(3-Chloro-4-(2-chloroethoxy)-5-cyanophenyl)propan-2-yl)phenoxy)methyl)-5-methylpyrimidin-2-yl)methanesulfonamide] | 92.4 | 6800 | 4080 | 0.5 | 1.1 | 1360.0 |  |  |  |  |  | 
3 | CC(C)(c1ccc(OCc2nc(S(C)(=O)=O)cs2)cc1)c1cc(Cl)c(OCCCl)c(C#N)c1 [Compound A136, 3-Chloro-2-(2-chloroethoxy)-5-(2-(4-((4-(methylsulfonyl)thiazol-2-yl)methoxy)phenyl)propan-2-yl)benzonitrile] | 14 | 42000 | 3430 | 1.5 | 10.2 | 8407.6 |  |  |  |  |  | 
4 | CC(C)(c1ccc(OCc2ccnc(NS(C)(=O)=O)n2)cc1)c1cc(Cl)c(OCCCl)c(Cl)c1 [Compound A74, N-(4-((4-(2-(3,5-dichloro-4-(2-chloroethoxy)phenyl)propan-2-yl)phenoxy)methyl)pyrimidin-2-yl)methanesulfonamide] |  | 72700 | 6310 | 2.7 |  | 14542.3 | > 10 | 9.51 | > 360 | 2420 | 12.5 | 71.9
5 | CC(C)(c1ccc(OC[C@H](O)CNS(C)(=O)=O)cc1)c1cc(Cl)c(OC[C@H](O)CCl)c(Cl)c1 [X, reference compound] |  |  |  |  |  |  | 9.83 | > 10 | > 360 |  |  | 
6 | CC(C)(c1ccc(OCc2ocnc2S(C)(=O)=O)cc1)c1cc(Cl)c(OCCCl)c(C#N)c1 [Compound A28, 3-chloro-2-(2-chloroethoxy)-5-(2-(4-((4-(methylsulfonyl)oxazol-5-yl)methoxy)phenyl)propan-2-yl)benzonitrile] | 50.3 | 8430 | 2010 | 0.5 | 2.8 | 1685.1 | > 10 | > 10 | > 360 |  |  | 
7 | CCS(=O)(=O)Nc1nc(COc2ccc(C(C)(C)c3cc(Cl)c(OCCCl)c(C#N)c3)cc2)co1 [Compound A126] | 86 | 24500 | 3110 | 1.3 | 4.7 | 4909.4 |  |  |  |  |  | 
8 | C[C@H](Oc1ccc(C(C)(C)c2cc(Cl)c(OCCCl)c(C#N)c2)cc1)c1ccnc(NS(C)(=O)=O)n1 (single isomer, unassigned) [Compound A170] | 150 | 80000 | 8500 | 3 | 3 | 16007.6 |  |  |  |  |  | 
9 | CC(C)(c1ccc(OCc2ccnc(NS(C)(=O)=O)n2)cc1)c1cc(Cl)c(OCCCl)c(C#N)c1 [Compound A109, N-(4-((4-(2-(3-chloro-4-(2-chloroethoxy)-5-cyanophenyl)propan-2-yl)phenoxy)methyl)pyrimidin-2-yl)methanesulfonamide] | 33.6 | 30700 | 2670 | 2.2 | 8.1 | 6143.0 | > 10 | > 10 | > 360 | 680 |  | 
10 | CCS(=O)(=O)Nc1nccc(COc2ccc(C(C)(C)c3cc(Cl)c(OCCCl)c(C#N)c3)cc2)n1 [Compound A131] | 81 | 76000 | 7050 | 1.3 | 5 | 15209.4 |  |  |  |  |  | 
